Laboratory results: ChEMBL document CHEMBL5046251, “Discovery of a Series of Pyrimidine Carboxamides as Inhibitors of Vanin-1” (J Med Chem, 2022)
Active and inactive are the calls of the source. The calls are words filed in the database; no cut-off is given here.

What was measured:
[1] = Volume of distribution in rat at 1 mg/kg, iv measured upto 24 hrs by LC-MS/MS analysis; assay type: ADME, organism-based; settings: in vivo
[2] = Half life in rat at 1 mg/kg, iv measured upto 24 hrs by LC-MS/MS analysis; assay type: ADME, organism-based; settings: in vivo
[3] = Oral bioavailability in rat at 10 mg/kg measured upto 24 hrs by LC-MS/MS analysis; assay type: ADME, organism-based; settings: in vivo
[4] = Apparent permeability across apical to basolateral side in RRCK cells; settings: dog, MDCK
[5] = Intrinsic clearance in human hepatocytes assessed per million cells by relay assay method; assay type: ADME, cell-based, Hepatocyte
[6] = AUC in rat at 10 mg/kg, po measured upto 24 hrs by LC-MS/MS analysis; assay type: ADME, organism-based; design: route oral, dose 10 mg/kg, time <=24; settings: in vivo
[7] = Intrinsic clearance in human hepatocytes assessed per million cells; assay type: ADME, cell-based, Hepatocyte
[8] = target: T1, Biotinidase (Homo sapiens, UniProt P43251); test: Inhibition of N-terminal FLAG/His6-tagged human biotinidase expressed in COS cells using biotinyl-7-amino-4-trifluoromethylcoumarin as substrate preincubated for 10 mins followed by substrate addition and measured after 90 mins; assay type: cell-based
T1 sequence (P43251 whole entry): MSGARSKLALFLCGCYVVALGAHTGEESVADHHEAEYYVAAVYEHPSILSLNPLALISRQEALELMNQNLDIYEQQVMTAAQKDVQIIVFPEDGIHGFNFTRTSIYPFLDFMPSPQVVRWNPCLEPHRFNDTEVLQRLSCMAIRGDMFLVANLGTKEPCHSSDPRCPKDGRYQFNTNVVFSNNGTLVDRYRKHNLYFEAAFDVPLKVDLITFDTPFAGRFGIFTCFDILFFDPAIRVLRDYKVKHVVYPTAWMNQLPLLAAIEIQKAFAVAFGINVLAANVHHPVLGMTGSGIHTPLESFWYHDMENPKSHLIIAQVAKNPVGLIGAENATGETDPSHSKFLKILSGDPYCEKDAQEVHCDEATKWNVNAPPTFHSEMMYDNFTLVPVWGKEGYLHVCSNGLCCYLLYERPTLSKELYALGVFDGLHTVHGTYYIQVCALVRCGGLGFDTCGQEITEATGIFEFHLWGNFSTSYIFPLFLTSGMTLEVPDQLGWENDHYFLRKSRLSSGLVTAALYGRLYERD

[9] = Clearance in rat at 1 mg/kg, iv measured upto 24 hrs by LC-MS/MS analysis; assay type: ADME, organism-based; settings: in vivo
[10] = AUC in rat at 1 mg/kg, iv measured upto 24 hrs by LC-MS/MS analysis; assay type: ADME, organism-based; design: route intravenous, dose 1 mg/kg, time <=24; settings: in vivo
[11] = AUC in mouse at 10 mg/kg, sc measured upto 24 hrs by LC-MS/MS analysis; assay type: ADME, organism-based; design: route subcutaneous, dose 10 mg/kg, time <=24; settings: in vivo
[12] = Renal clearance in rat at 1 mg/kg, iv assessed glomerular filtration rate; assay type: ADME, organism-based; settings: in vivo
[13] = Lipophilicity, log D of the compound in Octanol/buffer by shake-flask method
[14] = Intrinsic clearance in human liver microsomes; assay type: ADME, Microsome
[15] = target: T2, Pantetheinase (Mus musculus, UniProt Q9Z0K8); test: Inhibition of mouse vanin-1
T2 sequence (Q9Z0K8 whole entry): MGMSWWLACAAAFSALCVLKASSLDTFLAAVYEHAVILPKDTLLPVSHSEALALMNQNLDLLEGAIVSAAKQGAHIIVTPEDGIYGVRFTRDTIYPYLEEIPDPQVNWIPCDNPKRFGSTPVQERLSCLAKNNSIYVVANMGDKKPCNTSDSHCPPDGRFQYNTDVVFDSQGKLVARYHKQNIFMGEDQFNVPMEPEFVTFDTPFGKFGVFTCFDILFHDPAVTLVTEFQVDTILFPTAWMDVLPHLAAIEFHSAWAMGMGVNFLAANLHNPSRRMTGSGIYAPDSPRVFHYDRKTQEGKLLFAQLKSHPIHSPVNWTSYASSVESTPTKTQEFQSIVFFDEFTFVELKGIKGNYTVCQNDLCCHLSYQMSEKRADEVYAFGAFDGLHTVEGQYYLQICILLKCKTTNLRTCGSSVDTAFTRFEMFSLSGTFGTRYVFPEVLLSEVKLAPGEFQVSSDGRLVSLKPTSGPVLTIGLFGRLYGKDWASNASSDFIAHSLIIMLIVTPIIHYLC

[16] = Unbound drug concentration in serum of DSS-induced BALB/c mouse colitis model at 50 mg/kg administered for 10 days; assay type: ADME, organism-based; settings: in vivo, 240 h, time 10 day
[17] = Intrinsic clearance in rat hepatocytes assessed per million cells; assay type: ADME, cell-based, Hepatocyte
[18] = tested on: Mus musculus; test: Anti-colitis activity against DSS-induced BALB/c mouse model assessed as increase in body weight at 50 mg/kg, po, qd administered for 10 days; assay type: functional, organism-based; settings: time 10.0 day
[19] = tested on: Mus musculus; test: Anti-colitis activity against DSS-induced BALB/c mouse model assessed as reduction in disease activity index at 50 mg/kg, po, qd administered for 10 days; assay type: functional, organism-based; settings: time 10.0 day

Work on `C[C@H](Nc1ncc(C(=O)N2CCC3(CCOCC3)C2)cn1)c1cnccn1` yielded a Vd [1] of 0.98 L/kg, a half-life [2] of 48 min and a bioavailability [3] of 37%. The Papp A→B [4] was 14 ×10⁻⁶ cm/s, the CLint [5] was 0.25 µL/min/1e6 cells and the AUC at 24 h [6] was 2250 ng·h/mL. For the same compound, the CLint [7] was under 3 µL/min/1e6 cells, the IC50 [8] was 2800 nM and the clearance [9] was 30 mL/min/kg. It also gave an AUC at 24 h [10] of 616 ng·h/mL, an AUC at 24 h [11] of 6590 ng·h/mL and a CL [12] of 25%. The logD [13] was 0.4, the Intrinsic clearance [14] was under 8 µL/min/mg and the IC50 [15] was 0.56 nM. For the same compound, the Ct [16] was 2852 nM, the CLint [17] was 6 µL/min/1e6 cells and the Activity [18] was “Active”. The Activity [19] was “Active”.
